“And” between values parts separate entries of the source, which are not always exact repeats. Identical values can stand only once.
Experiments:
[1] = system: microbial aminotransferase; conditions: at more than 0.2M; cited from earlier work
[2] = target: T1, genetically engineered tyrosine aminotransferase (Escherichia coli, UniProt P04693); experiment: Tyrosine aminotransferase-catalyzed amino transfer to 2-oxo-4-phenylbutyric acid with various amino acids as amino donors; assay type: biochemical, E. coli; design: initial rate: unit not given here; conditions: amino acid 0.20 mmol, 2-oxo-4-phenylbutyric acid 0.10 mmol, enzyme 1 unit, 5 mL Tris-HCl 20 mM pH 8.5, 37° C., 5 min; for initial rate: increase of homophenylalanine by HPLC
T1 construct: made in house; host or cells: E. coli
T1 sequence (P04693 whole entry, change not shown): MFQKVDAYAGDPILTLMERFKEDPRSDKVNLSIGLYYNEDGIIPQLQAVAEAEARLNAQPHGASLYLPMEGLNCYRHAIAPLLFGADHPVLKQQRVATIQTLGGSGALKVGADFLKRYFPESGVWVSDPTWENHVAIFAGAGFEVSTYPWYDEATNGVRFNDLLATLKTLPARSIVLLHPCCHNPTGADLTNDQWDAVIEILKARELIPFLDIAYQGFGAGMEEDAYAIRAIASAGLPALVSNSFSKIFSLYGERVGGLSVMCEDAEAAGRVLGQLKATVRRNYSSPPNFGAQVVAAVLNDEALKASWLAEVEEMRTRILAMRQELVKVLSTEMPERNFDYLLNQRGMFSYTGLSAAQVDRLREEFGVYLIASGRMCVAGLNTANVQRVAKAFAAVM
Source text: Production of tyrosine aminotransferase: Genetically engineered tyrosine aminotransferase is preferably produced by overexpressing the gene product in E. coli according to the method described by Kuramitsu et al. in Biochem, Biophys. Res. Commu., 1989, 133:134, the contents of which are herein incorporated by references in their entirety. One unit of enzyme activity was defined as the activity that produces 1 μmol of product per minute.
The enzymatic activities of the genetically engineered tyrosine aminotransferase as described above were tested using various amino acids as amino donors and the results are shown in Table I. Each enzyme-catalyzed reaction was carried out in a mixture (5 mL) of Tris-HCl buffer (20 mM, pH 8.5) containing the tested amino acid (0.20 mmol) and 2-oxo-4-phenylbutyric acid (0.10 mmol) and the enzyme (1 unit) at 37° C. for 5 min. The initial rate was measured by calculating the increase of homophenylalanine concentration in each reaction based on HPLC analysis.

[3] = target: T2, tyrosine aminotransferase (Escherichia coli, UniProt P04693); experiment: Equilibrium constants of the tyrosine aminotransferase-catalyzed reaction with 2-oxo-4-phenylbutyric acid and various amino acids; assay type: biochemical, E. coli; conditions: 2-oxo-4-phenylbutyric acid and the amino acid as substrates
T2 construct: made in house; host or cells: E. coli
T2 sequence (P04693 whole entry): as the sequence (P04693 whole entry, change not shown) above
Procedure: (§1) The HPLC chromatography is preferably conducted under the following conditions: column, 5C18; flow rate, 1 ml/min; gradient elution from an initial solution of 10% of eluent B+90% of eluent A to a final solution of 100% of eluent B in 20 minutes, wherein eluent A contains 5% ACN in 0.1% TFA and eluent B contains 95% ACN in 0.1% TFA; detector UV 214 nm. Initially, only peaks representing the starting materials L-glutamic acid having a retention time of 2.70 min and compound 1 having a retention time of 7.49 min appear in the HPLC graph as shown in the lower panel of FIG. 3. After adding the tyrosine aminotransferase, the areas of peaks corresponding to compound 1 and glutamic acid are decreased gradually, whereas areas of peaks corresponding to compound 2 having a retention time of 5.24 min and α-ketoglutamic acid having a retention time of 3.49 min are increased, as shown in the upper panel of FIG. 3. When the area of the peak representing compound 1 is reduced to one-fifth of the initial peak area, white precipitates appear in the reaction solution, while the peak area of compound 2 becomes stable and stays constant until the peak areas of compound 1 and glutamic acid are reduced to about baseline.

[4] = assay type: physicochemical; conditions: pH 8.5
Procedure: Synthesis of L-homophenylalanine: The synthesis is conducted preferably in a reaction mixture (5 ml) containing Tris-HCl buffer (50 mM, pH 8.5), compound 1 (10 mmole, the final concentration of compound 1 is about 2 M), L-Glu (10 mM), pyridoxal 5-phosphate (20 mM) at 37° C. The reaction is initiated by adding the tyrosine aminotransferase (5 units) to the reaction solution and monitored by HPLC.
as §1, with “When the area of the peak representing compound 1 is reduced to one-fifth of the initial peak area, white precipitates appear in the reaction solution, while the peak area of compound 2 becomes stable and stays constant until the peak areas of compound 1 and glutamic acid are reduced to about baseline.” left out

Structure (SMILES) | inhibition of aminotransferase activity and conversion yield [1] | turnover rate [2] | initial rate [2] | Equilibrium Constant (Keq) [3] | solubility in the reaction solution [4]
O=C(O)C(=O)CCc1ccccc1 [2-oxo-4-phenylbutyric acid] | markedly inhibited | – | – | – | –
C[C@H](N)C(=O)O [L-Ala, alanine] | – | 0.042 mM/min.unit | 0.23 | – | –
N[C@@H](CC(=O)O)C(=O)O [L-Asp, aspartic acid] | – | 0.372 mM/min.unit | 2.04 | 0.187 | –
N[C@@H](CCC(=O)O)C(=O)O [L-Glu, glutamic acid] | – | 0.539 mM/min.unit and 0.54 mM/min.unit | 2.96 | 0.345 | –
NCC(=O)O [L-Gly, glycine] | – | 0.027 mM/min.unit | 0.15 | – | –
N[C@@H](Cc1c[nH]cn1)C(=O)O [L-His, histidine] | – | 0.089 mM/min.unit | 0.49 | – | –
CC[C@H](C)[C@H](N)C(=O)O [L-Ile, isoleucine] | – | 0.005 mM/min.unit | 0.03 | – | –
CC(C)C[C@H](N)C(=O)O [L-Leu, leucine] | – | 0.106 mM/min.unit | 0.58 | – | –
NCCCC[C@H](N)C(=O)O [L-Lys, lysine] | – | 0.046 mM/min.unit | 0.25 | – | –
CSCC[C@H](N)C(=O)O [L-Met, methionine] | – | 0.268 mM/min.unit | 1.47 | – | –
N[C@@H](Cc1ccccc1)C(=O)O [L-Phe, phenylalanine] | – | 0.605 mM/min.unit and 0.61 mM/min.unit | 3.32 | 0.466 | –
N[C@@H](CO)C(=O)O [L-Ser, serine] | – | 0.002 mM/min.unit | 0.01 | – | –
C[C@@H](O)[C@H](N)C(=O)O [L-Thr, threonine] | – | 0.009 mM/min.unit | 0.05 | – | –
N[C@@H](Cc1ccc(O)cc1)C(=O)O [L-Tyr, tyrosine] | – | 0.619 mM/min.unit and 0.62 mM/min.unit | 3.43 | 0.727 | –
CC(C)[C@H](N)C(=O)O [L-Val, valine] | – | 0.058 mM/min.unit | 0.32 | – | –
N[C@@H](CCc1ccccc1)C(=O)O [compound 2, L-homophenylalanine] | – | – | – | – | practically insoluble

Source: patent US6146859A, “Facile synthesis of L-homophenylalanine by equilibrium shift enzymatic reaction using engineered tyrosine aminotransferase” (Academia Sinica, priority 1999, dated 2000)
